Laboratory results reported in patent US7488716B2 (priority 2001, dated 2009).
Where a SMILES comes first, the peptide text is derived from it. Where no end group is shown, it is not given here. The star is where a group is joined. Palmitoyl = CCCCCCCCCCCCCCCC(=O)*

Experiments:
perfused rat islets = assay: Insulin secretion by perfused rat islets; assay type: cell-based; conditions: 50 nM peptide, 8 mM glucose
Protocol: Sprague Dawley rats (275-320 g) were used as the source of donor islets. Briefly, the pancreas was filled with 10 ml of cold reconstituted Liberase RI (Boehringer Manheim), harvested and incubated with additional 5 ml enzyme solution in water bath for 30 minutes. Tissue suspension was washed twice with cold 10% FBS/Hanks buffer (Gibco), resuspended in 8 ml 25% ficoll (Sigma) and then layered with 5 ml each of 23%, 20% and 11% ficoll. The islets in the 20% layer after centrifugation were removed, washed twice with cold 10% FBS/Hank buffer and resuspended in 10% FBS/RPMI 1640 media (Sigma).
Insulin secretion of perfused rat islets mediated by some peptides of the invention was measured as follows. The bi-phasic responses of insulin release stimulated by these polypeptides were tested by islet perfusion. Fifty islets were loaded in the perifusion chamber and perifused with HEPES-KRB containing 3 mM glucose at 37° C. After 60 min, islets were exposed to buffer containing 8 mM glucose with or without peptide (50 nM) and perifused for another 30 min. Fractions of perifusate were collected at 1 or 5 minute intervals for insulin determination. Insulin was measured using an ELISA kit (Alpco Diagnostics, Windham, N.H.).

[1] = Intraperitoneal glucose tolerance testing (IPGTT) in rats or mice; assay type: in vivo; conditions: ipGTT in mice 3 hours post dosing with 100 μg/kg peptide
Protocol: Blood glucose levels during intraperitoneal glucose tolerance testing in rats or mice by some polypeptides of the invention were measured as follows. The in vivo activity of the polypeptides of the invention when administered subcutaneously was examined in rats or mice. Rats or mice fasted overnight were given a subcutaneous injection of control or peptide (100 μg/kg). Basal blood glucose was measured prior to administration of peptides or three or 17 hours after administration of derivatized peptides, and the rats or mice were given 2 g/kg of glucose intraperitoneally. Blood glucose was measured again after 15, 30 and 60 minutes in rats or 30 and 60 minutes in mice.

[2] = test system: glucagon-mediated elevation in blood glucose; assay: Glucagon-stimulated glucose production in fed Balb/C mice; assay type: in vivo
Protocol: The change in glucose over the 15 minutes was calculated for each mouse.

GLP-1 receptor [3] = biological target: T1, GLP-1 receptor (Rattus norvegicus, UniProt P32301); assay: Peptide signaling through GLP-1 receptor, cAMP scintillation proximity assay in RINm5F cells; assay type: cell-based; conditions: for GLP1 Relative Potency: EC50 of native GLP-1 (7-36) divided by EC50 of polypeptide x 100, cAMP in RINm5F cells
T1 construct: endogenous in cells; host or cells: RINm5F cells
T1 sequence (P32301 22-463): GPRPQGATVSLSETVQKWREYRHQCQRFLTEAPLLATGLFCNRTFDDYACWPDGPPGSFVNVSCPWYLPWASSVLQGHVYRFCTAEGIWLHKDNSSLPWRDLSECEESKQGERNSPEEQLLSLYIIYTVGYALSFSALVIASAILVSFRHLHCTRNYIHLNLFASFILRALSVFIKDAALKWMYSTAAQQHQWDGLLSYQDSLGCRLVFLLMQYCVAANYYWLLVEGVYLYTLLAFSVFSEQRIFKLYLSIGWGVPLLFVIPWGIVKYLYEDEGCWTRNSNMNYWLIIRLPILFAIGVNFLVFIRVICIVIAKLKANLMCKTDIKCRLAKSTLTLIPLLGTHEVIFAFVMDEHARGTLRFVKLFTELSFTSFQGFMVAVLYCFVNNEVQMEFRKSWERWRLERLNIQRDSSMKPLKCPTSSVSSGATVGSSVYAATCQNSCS
Protocol: The media was removed and the cells were washed twice with PBS. […] For assay of peptides conjugated with fatty acid, the BSA was omitted from the incubation buffer. The incubation buffer was removed, and the cells were lysed in the lysis reagent provided with the cAMP Scintillation Proximity Assay (SPA) direct screening assay system (Amersham Pharmacia Biotech Inc, Piscataway, N.J.). The amount of cAMP (in pmol) present in the lysates was determined following instructions provided with this kit.
The amount of cAMP (in pmol) produced at each concentration of peptide was plotted and analyzed by nonlinear regression using Prizm software to determine the EC50 for each peptide.

[4] = test system: dispersed rat islet cells; assay: Insulin secretion from dispersed rat islet cells; assay type: cell-based; conditions: 50 nM peptide, fold over control
Protocol: Insulin secretion of dispersed rat islets mediated by a number of peptides of the invention was measured as follows. Islets of Langerhans were isolated from SD rats (200-250 g) through a digestion procedure using collagenase. Dispersed islet cells were prepared through treatment with trypsin, seeded into 96 V-bottom plates and pelleted. Cells were cultured overnight in media. Media was aspirated and the cells were pre-incubated with Krebs-Ringer-HEPES buffer containing 3 mM glucose for 30 minutes at 37° C. Pre-incubation buffer was removed and cells were stimulated with Krebs-Ringer-HEPES buffer containing the appropriate glucose concentration (e.g., 8 mM), with and without peptides for an appropriate time at 37° C. […] A portion of supernatant was removed and its insulin content was measured by SPA. The results are expressed as fold over control (FOC). At a concentration of 50 nM, the polypeptide having an amino acid sequence shown in SEQ ID NO:27 increased insulin secretion from dispersed islet cells approximately 3-fold.

glucagon receptor = biological target: T2, glucagon receptor (Rattus norvegicus, UniProt P30082); assay: Competitive binding of peptide to the glucagon receptor in rat liver plasma membranes (125I glucagon)
T2 construct: glucagon receptor present in the plasma membranes isolated from rat liver; from tissue; host or cells: rat liver plasma membranes
T2 sequence (P30082 27-485): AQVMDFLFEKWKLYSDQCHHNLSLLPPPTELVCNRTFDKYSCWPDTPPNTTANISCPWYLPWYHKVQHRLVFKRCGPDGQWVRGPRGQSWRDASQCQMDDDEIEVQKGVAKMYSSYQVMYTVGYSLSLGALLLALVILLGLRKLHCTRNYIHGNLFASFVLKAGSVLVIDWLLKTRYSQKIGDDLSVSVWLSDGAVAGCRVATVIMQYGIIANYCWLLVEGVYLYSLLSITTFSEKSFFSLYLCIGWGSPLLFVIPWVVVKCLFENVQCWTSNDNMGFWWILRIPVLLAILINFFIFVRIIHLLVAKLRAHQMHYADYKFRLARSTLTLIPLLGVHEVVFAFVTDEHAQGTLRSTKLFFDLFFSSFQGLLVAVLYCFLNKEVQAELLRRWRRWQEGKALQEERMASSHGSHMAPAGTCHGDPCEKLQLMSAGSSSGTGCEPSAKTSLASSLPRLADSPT
Protocol: The wet weight of the livers was determined and the tissue minced in 5 volumes of ice cold TES buffer and a slurry prepared using a polytron. All buffers and spins were kept at 4° C. The slurry was further homogenized using three strokes of a handheld dounce homogenizer. The homogenate was passed through several layers of cheesecloth and spun at 25,000×g for 10 minutes. Pellets were homogenized in 22.1 ml TES buffer using 10 strokes of a handheld dounce homogenizer. Twenty-seven point nine milliliters of 2.4 M sucrose in TE was added and mixed well. The homogenate was distributed among several tubes, and each tube was overlaid with 7 ml of TES buffer. The tubes were spun at 120,000×g for 60 minutes. The plasma membranes were removed from the interface that formed during the spin, diluted in TES and concentrated using a 15 minute spin at 200,000×g. The resulting pellet was again homogenized in 9.8 ml TES buffer, combined with 10.3 ml 2.4M sucrose, overlaid with 7 ml TES, and centrifuged at 180,000×g for 30 min. […] The final pellet was resuspended in TES. Plasma membranes were stored at −80° C. until ready for use.
(§1) Competitive binding of some polypeptides of the invention to rat liver plasma membranes was measured as follows. Ninety-six-well GF/C filtration plates (Millipore, Bedford, Mass.) were blocked with 0.1% PEI for at least one hour and washed twice with binding buffer consisting of 20 mM Tris, 2 mM EDTA, pH 7.5, 1 mg/ml BSA, and 1 mg/ml bacitracin. […] The plates were dried, scintillant was added to each well, and cpm per well determined using a Wallac Microbeta counter.

GLP-1 receptor [5] = biological target: T1, GLP-1 receptor; assay: Competitive binding of peptide to the GLP-1 receptor in RINm5F cell plasma membranes (125I GLP-1); conditions: read-out: GLP1 RIN IC50
Protocol: Flasks of RINm5F cells were washed with PBS, scraped in 20 mM Hepes-1 mM EDTA-250 mM sucrose buffer containing protease inhibitors (HES) and homogenized in a dounce homogenizer followed by repeated resuspension through a 23 gauge needle. Unbroken cells and nuclei were removed by centrifugation at 500×g for 5 minutes. The pellet was resuspended in HES buffer using a 23 gauge needle and the centrifugation was repeated. The supernatants from the two spins were combined and centrifuged at 40,000×g for 20 min. The resulting plasma membrane pellet was resuspended in HES buffer using a 23 gauge needle followed by a 25 gauge needle. Membranes were stored at −80° C. until use.
as §1, with “RINm5F cell” for “rat liver”, “0.3%” for “0.1%”

Compound | Increase of insulin secretion from perfused islets (perfused rat islets) | In vivo Decrease IpGTT AUC [1] [%] | % Inhibition ([2]; Balb/C mice, 10 μg/kg glucagon, 100 μg/kg peptide sc 17 h before) [%] | Glucose 15 min ([2]; Balb/C mice, 15 min after 10 μg/kg iv glucagon) [mg/dL] | Glucose Delta (15 − 0) ([2]; Balb/C mice, change over 15 min after glucagon) [mg/dL] | Glucose -Vehicle delta ([2]; Balb/C mice, delta minus vehicle group delta) [mg/dL] | % of 10 μg/kg Glucagon ([2]; Balb/C mice, glucose change relative to glucagon alone) [%] | Glucose 0 min ([2]; Balb/C mice, just prior to 10 μg/kg iv glucagon, peptide 100 μg/kg sc 17 h before) [mg/dL] | In vivo % Decrease glucagon stimulated blood glucose ([2]; glucagon challenge in mice 17 hours post dosing with 100 μg/kg peptide) [%] | GLP1 Relative Potency (GLP-1 receptor [3]) [%] | % GLP1 max (GLP-1 receptor [3]; maximal cAMP activity relative to native GLP-1 (7-36), RINm5F cells) [%] | Increase of insulin secretion from dispersed islet cells [4] | IC50 (glucagon receptor) [nM] | IC50 (GLP-1 receptor [5]) [nM] | Emax (GLP-1 receptor [3]; RIN-m5F, read-out: % GLP1 max) [%]
CC[C@H](C)[C@H](NC(=O)[C@H](Cc1ccccc1)NC(=O)[C@H](CCC(=O)O)NC(=O)[C@H](CCCCN)NC(=O)[C@H](C)NC(=O)[C@H](C)NC(=O)[C@H](CCC(N)=O)NC(=O)CNC(=O)[C@H](CCC(=O)O)NC(=O)[C@H](CC(C)C)NC(=O)[C@H](Cc1ccc(O)cc1)NC(=O)[C@H](CO)NC(=O)[C@H](CO)NC(=O)[C@@H](NC(=O)[C@H](CC(=O)O)NC(=O)[C@H](CO)NC(=O)[C@@H](NC(=O)[C@H](Cc1ccccc1)NC(=O)[C@@H](NC(=O)CNC(=O)[C@H](CCC(=O)O)NC(=O)[C@H](C)NC(=O)[C@@H](N)Cc1c[nH]cn1)[C@@H](C)O)[C@@H](C)O)C(C)C)C(=O)N[C@@H](C)C(=O)N[C@@H](Cc1c[nH]c2ccccc12)C(=O)N[C@@H](CC(C)C)C(=O)N[C@H](C(=O)N[C@@H](CCCCN)C(=O)NCC(=O)N[C@@H](CCCNC(=N)N)C(N)=O)C(C)C [GLP-1, reference compound] | approximately 2 fold |  |  |  |  |  |  |  |  |  |  |  |  |  | 
HSQGTFTSDYARYLDARRAREFIKWLVRGRC(43kD) (HSQGTFTSDYARYLDARRAREFIKWLVRGRC(PEG 43kD); listed as Homo sapiens) [G4185, 43kD PEG linked to the cysteine residue] |  | 36 | 31 | 150 | 75 | 59 | 69 | 75 | 31 | 0.7 | 98.3 | approximately 3 fold |  |  | 
CCCCCCCCCCCCCCCC(=O)NCCCC[C@H](NC(=O)CNC(=O)[C@H](CCCNC(=N)N)NC(=O)CNC(=O)[C@H](CCCNC(=N)N)NC(=O)[C@@H](NC(=O)[C@H](CC(C)C)NC(=O)[C@H](Cc1c[nH]c2ccccc12)NC(=O)[C@H](CCCCN)NC(=O)[C@@H](NC(=O)[C@H](Cc1ccccc1)NC(=O)[C@H](CCC(=O)O)NC(=O)[C@H](CCCNC(=N)N)NC(=O)[C@H](C)NC(=O)[C@H](CCCNC(=N)N)NC(=O)[C@H](CCCNC(=N)N)NC(=O)[C@H](C)NC(=O)[C@H](CC(=O)O)NC(=O)[C@H](CC(C)C)NC(=O)[C@H](Cc1ccc(O)cc1)NC(=O)[C@H](CCCNC(=N)N)NC(=O)[C@H](C)NC(=O)[C@H](Cc1ccc(O)cc1)NC(=O)[C@H](CC(=O)O)NC(=O)[C@H](CO)NC(=O)[C@@H](NC(=O)[C@H](Cc1ccccc1)NC(=O)[C@@H](NC(=O)CNC(=O)[C@H](CCC(N)=O)NC(=O)[C@H](CO)NC(=O)[C@@H](N)Cc1c[nH]cn1)[C@@H](C)O)[C@@H](C)O)[C@@H](C)CC)C(C)C)C(=O)O [G182] (H-HSQGTFTSDYARYLDARRAREFIKWLVRGRGK(Palmitoyl)-OH; N-terminus and C-terminus assumed) |  | 14 |  |  |  |  |  |  |  | 1.4 |  |  | 220 | 12.6 | 104
